Data: patent publication US20150190479A1, “DELIVERY OF CHOLESTERYL ESTER TO STEROIDOGENIC TISSUES” (ALPHACORE PHARMA, LLC, priority 2010, published 2015)

Columns and labels:
Format in all cases: in vivo, human
[1] = Adrenal function of a trauma patient under treatment; conditions: car accident victim; combination of 150 mg/day anacetrapib and LCAT injection (40 mg) every 5 days
Description: The efficacy of a particular dose may be assessed by reference noting the change in HDL-C or improvement in certain physiologic parameters. Suitable physiologic parameters include, but are not limited to, improved cortisol response to ACTH, improved cortisol levels, change in circulating levels of steroids, e.g., corticosteroids, glucocorticoids, cortisol, testosterone, estrogen, decreased inflammatory cytokines, and improved liver function.
A victim of a car accident with abdominal injuries is brought to the hospital. Their HDL is 55 mg/dl. As HDL routinely falls after trauma, the physician prescribes 150 mg/day anacetrapib and an injection of LCAT (40 mg) every 5 days until the patient is fully stabilized. This treatment maintained the patient's HDL at >75 mg/dl throughout their recovery. Adrenal function was maintained.

[2] = Testosterone level and complaints of a patient with low testosterone; conditions: HDL-C 25 mg/dl, 150 mg/day
Method: A patient complains of lethargy and impotence. Their testosterone levels are low, and their HDL-C is 25 mg/dl. The physician prescribes ancetrapib at a dose of 150 mg/day. […] The patient's original complaints are absent.

[3] = HDL-C level of a patient after treatment (illustrative patient examples); conditions: patient admitted for major surgery, HDL-C 25 mg/dl at admission; LCAT 40 mg given 24 hours prior to surgery
Description: Measurement of biomarker levels and parameters described above may be measured using methods that are well known in the art. For example, change in HDL-CE level is easily detected with standard clinical laboratory procedures. Likewise, measuring the adrenal response to ACTH is commonly used in patients with suspected adrenal insufficiency. One of ordinary skill in the art would understand the significance of the results and may choose to adjust the dose based on assessments such as those described above.
A patient is admitted into the hospital for major surgery. The patients HDL-C level is 25 mg/dl. […] The patient is administered a dose of LCAT of 40 mg 24 hours prior to surgery. The patient's HDL-C is measured prior to surgery, and is now above 50 mg/di, thus greatly reducing risk of infection and/or death following the procedure.
A burn victim is stabilized in the hospital with an HDL-C level of 12 mg/dl. […] The patient is infused with rHDL at a dose of 25 mg/kg over a period of 5 hours, raising the patient's HDL-C by 50 mg/dl. In order to maintain this level of HDL, the patient is administered a 60 mg dose of LCAT. Cortisol levels are monitored periodically to determine if the adrenal function is normalized. […]
A patient is beginning to enter septic shock. […] Cortisol levels are monitored to determine if the adrenal function is normalized. […]

COc1cc(F)c(C(C)C)cc1-c1ccc(C(F)(F)F)cc1CN1C(=O)O[C@H](c2cc(C(F)(F)F)cc(C(F)(F)F)c2)[C@@H]1C [anacetrapib]
adrenal function [1]: maintained | patient's original complaints (lethargy and impotence) [2]: absent | testosterone level on recheck ([2]; rechecked 'For weeks later'): within normal levels

B1: lecithin-cholesterol acyltransferase (protein, UniProt P04180 25-440, looked up)
Phosphatidylcholine-sterol …: FWLLNVLFPPHTTPKAELSNHTRPVILVPGCLGNQLEAKLDKPDVVNWMCYRKTEDFFTIWLDLNMFLPLGVDCWIDNTRVVYNRSSGLVSNAPGVQIRVPGFGKTYSVEYLDSSKLAGYLHTLVQNLVNNGYVRDETVRAAPYDWRLEPGQQEEYYRKLAGLVEEMHAAYGKPVFLIGHSLGCLHLLYFLLRQPQAWKDRFIDGFISLGAPWGGSIKPMLVLASGDNQGIPIMSSIKLKEEQRITTTSPWMFPSRMAWPEDHVFISTPSFNYTGRDFQRFFADLHFEEGWYMWLQSRDLLAGLPAPGVEVYCLYGVGLPTPRTYIYDHGFPYTDPVGVLYEDGDDTVATRSTELCGLWQGRQPQPVHLLPLHGIQHLNMVFSNLTLEHINAILLGAYRQGPPASPTASPEPPPPE
notes: enzyme
patient's HDL-C measured prior to surgery [3]: above 50 mg/di | adrenal function [1]: maintained
